# Assay results as given in ChEMBL document CHEMBL4371083, “Synthesis, biological evaluation and 3D-QSAR studies of 1,2,4-triazole-5-substituted carboxylic acid bioisosteres as uric acid transporter 1 (URAT1) inhibitors for the treatment of hyperuricemia associated with gout” (Bioorg Med Chem Lett, 2019).
# Target: T1, Solute carrier family 22 member 12 (Homo sapiens, UniProt Q96S37)
# T1 sequence (Q96S37 whole entry): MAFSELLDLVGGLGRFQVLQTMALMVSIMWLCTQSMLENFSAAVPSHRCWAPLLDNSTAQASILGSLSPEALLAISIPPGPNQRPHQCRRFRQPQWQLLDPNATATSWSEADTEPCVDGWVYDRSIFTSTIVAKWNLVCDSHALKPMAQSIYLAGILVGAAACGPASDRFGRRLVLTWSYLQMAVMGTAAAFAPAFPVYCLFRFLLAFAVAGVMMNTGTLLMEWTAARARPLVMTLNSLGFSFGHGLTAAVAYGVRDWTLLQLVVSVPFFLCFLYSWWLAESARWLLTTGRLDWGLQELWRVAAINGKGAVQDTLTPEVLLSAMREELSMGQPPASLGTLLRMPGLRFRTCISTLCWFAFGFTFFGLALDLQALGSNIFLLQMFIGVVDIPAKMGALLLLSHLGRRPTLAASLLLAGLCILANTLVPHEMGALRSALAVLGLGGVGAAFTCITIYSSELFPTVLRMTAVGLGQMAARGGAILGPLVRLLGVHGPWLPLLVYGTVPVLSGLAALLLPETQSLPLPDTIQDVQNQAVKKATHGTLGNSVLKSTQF
# Assay: Inhibition of human URAT1 expressed in HEK293 cells assessed as reduction in [8-14C]uric acid uptake
# Format: cell-based
row,SMILES,IC50 [µM]
1,O=S(=O)(CSc1nnc(Br)n1Cc1ccc(Br)c2ccccc12)Nc1ccc(F)nc1,1.55
2,O=S(=O)(CSc1nnc(Br)n1Cc1ccc(Br)c2ccccc12)Nc1cccnc1Br,0.28
3,NS(=O)(=O)CSc1nnc(Br)n1Cc1ccc(Br)c2ccccc12,365
4,O=S(=O)(CSc1nnc(Br)n1Cc1ccc(Br)c2ccccc12)Nc1cccnc1Cl,5.1
5,O=S(=O)(CSc1nnc(Br)n1Cc1ccc(Br)c2ccccc12)Nc1ccc(Br)nc1Br,5.41
6,O=S(=O)(CSc1nnc(Br)n1Cc1ccc(Br)c2ccccc12)Nc1cncc(C(F)(F)F)c1,6.38
7,O=S(=O)(CSc1nnc(Br)n1Cc1ccc(Br)c2ccccc12)Nc1cnccc1I,10.6
8,O=S(=O)(CSc1nnc(Br)n1Cc1ccc(Br)c2ccccc12)Nc1ccc(Br)nc1,2.2
9,O=S(=O)(CSc1nnc(Br)n1Cc1ccc(Br)c2ccccc12)Nc1cc(Cl)cnc1Cl,2.79
10,Brc1ccc(Cn2c(Br)nnc2SCc2nnn[nH]2)c2ccccc12,3.24
11,O=S(=O)(CSc1nnc(Br)n1Cc1ccc(Br)c2ccccc12)Nc1ccc(Cl)nc1,1.94
12,Oc1c(Br)cc(CSc2nnc(Br)n2Cc2ccc(Br)c3ccccc23)cc1Br,119

# Continued by falling IC50, values first:
row,IC50 [µM],SMILES
1,15.8,O=S(=O)(CSc1nnc(Br)n1Cc1ccc(Br)c2ccccc12)Nc1ccccc1
2,14.4,O=S(=O)(O)CSc1nnc(Br)n1Cc1ccc(Br)c2ccccc12
3,10.2,O=S(=O)(CSc1nnc(Br)n1Cc1ccc(Br)c2ccccc12)Nc1ccc(C(F)(F)F)nc1
4,4.05,COc1ncccc1NS(=O)(=O)CSc1nnc(Br)n1Cc1ccc(Br)c2ccccc12
5,1.66,O=S(=O)(CSc1nnc(Br)n1Cc1ccc(Br)c2ccccc12)Nc1ccc(Cl)nc1Cl
6,0.64,O=C(CSc1nnc(Br)n1Cc1ccc(Br)c2ccccc12)NO
7,0.032,O=S(=O)(CSc1nnc(Br)n1Cc1ccc(Br)c2ccccc12)Nc1cccnc1
